Test results published in PubChem BioAssay AID179 (DTP/NCI, 2004).
Activity calls are given as the source filed them.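 How the source made its calls: active means compounds giving half or more protection of infected cells from virus-caused growth loss, again on retest; inactive means the rest.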 Where a SMILES comes first, the peptide text is derived from it.

System: CEM cells HIV-1 protection, formazan growth assay
Assay: NCI AIDS Antiviral Assay
Details: for IC50: measured here: growth of uninfected CEM cells
Procedure, shortened: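 Human CEM cells, uninfected and HIV-1-infected, exposed to five drug concentrations; growth measured by soluble formazan assay and scored as percent protection from infection, with protecting compounds retested.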

Row | Structure (SMILES) | EC50 [µM] | IC50 [µM] | outcome
1 | CN1CN(c2ccccc2)C2(CCN(CCc3csc4ccccc34)CC2)C1=O | > 200 | 28.8 | –
2 | O=C1[C@H]2CCCC[C@H]2C(=O)N1N1C(=O)[C@H]2CCCC[C@H]2C1=O | – | – | inactive
3 | COc1cccc2c1OC(c1ccc(Cl)cc1)C([N+](=O)[O-])=C2 (centres undefined) | > 200 | 1.45 | –
4 | NC1=NNC2(C(N)=N1)c1ccccc1-c1ccccc12 | > 200 | 51.3 | –
5 | C[C@H](OC(=O)/C=C/c1ccc(O)c(O)c1)[C@H](C)OC(=O)/C=C/c1ccc(O)c(O)c1 | > 200 | 3.47 | –
6 | CC(C)OP(=O)(CCC(=O)C1(O)CCC2C3CCC4=CC(=O)CCC4(C)C3CCC21C)OC(C)C (centres undefined) | > 200 | 32.4 | –
7 | O=C(Nc1ccccc1S)OCc1ccccc1 | 34.7 | 46.8 | –
8 | Cc1ccc(S(=O)(=O)N2CCN(CCN(C)CCN3CCN(S(=O)(=O)c4ccc(C)cc4)CC3)CC2)cc1 | > 100 | 46.8 | –
9 | Cn1c(=O)c2nc(NCC3CCCCC3)sc2n(C)c1=O | > 107 | 102 | –
10 | CN(C)CCC(/C=C/c1ccccc1)=N\Nc1ccc(Cl)cc1Cl | – | – | inactive
11 | Cc1cc(S(=O)(=O)Nc2nc(N)n(-c3ccccn3)n2)c(S)cc1Cl | 115 | > 200 | –
12 | CC[C@@H]1CC2CC3c4[nH]c5ccccc5c4CCN(C2)C31 (some centres undefined) | – | – | inactive
13 | c1ccc(CN2CCC3(CC2)SSC2(CCN(Cc4ccccc4)CC2)S3)cc1 | > 100 | 87.1 | –
14 | CNC(=O)OCn1cnc(Cl)c1Cl | > 200 | > 200 | –
15 | O=C(C=Nc1ccccc1C(=O)[O-])c1cccs1.O=C(C=Nc1ccccc1C(=O)[O-])c1cccs1.[Ni+2] | – | – | inactive
16 | CC1C2(C)OC(=N)C(C#N)(C(c3ccco3)O2)C1(C#N)C#N (centres undefined) | > 200 | 14.5 | –
17 | O=C(O)/C=C/C(=O)NNC(=O)/C=C/C(=O)O | > 1100 | 692 | –
18 | O=C(Nc1ccccc1)c1cc2ccc(O)c(O)c2cn1 | > 158 | 8.32 | –
19 | O=C1CCCCCCCCCCC(=O)C2CCOCCOCCOCCC1Cc1cccc(n1)C2 | > 138 | > 138 | –
20 | CC(=O)NC(C)(C)C | – | – | inactive
21 | CCC(C)C(NC(=O)C(N)CCC(=O)O)C(=O)NC(CCCCN)C(=O)NCC(=O)NC(C(=O)NC(C(=O)NC(CC(=O)O)C(=O)NC(CC(C)C)C(=O)NCC(=O)NC(CCCCN)C(=O)O)C(C)O)C(C)O (centres undefined) (H-EIKGTTDLGK-OH; configuration not given here) | – | – | inactive
22 | COc1ccc2c(c1OC)CN(C)CCc1cc3c(c(OC)c1C(=O)C2)OCO3 | – | – | inactive

Row | Structure (SMILES) | EC50 [µM] | IC50 [µM] | outcome
23 | CCOC(=O)Oc1cc2ccsc2c2c1c1ccccc1n2C(=O)OCC | > 200 | 35.5 | –
24 | COc1cc2c(cc1OC)CCc1cc(OC)c(OC)cc1CC2 | > 200 | 89.1 | –
25 | NC(N)=Nc1ccc(/C=C2\C=Cc3ccccc32)cc1 | > 27.5 | 10.5 | –
26 | c1ccc(SC2CC[C@H]3CCCC[C@H]3O2)cc1 (some centres undefined) | – | – | inactive
27 | COc1ccc(C(Nc2nc3c(ncn3COCCOP(=O)(OCOC(=O)C(C)(C)C)OCOC(=O)C(C)(C)C)c(=O)[nH]2)(c2ccccc2)c2ccccc2)cc1 | > 100 | 8.71 | –
28 | COC(=O)c1c2c(cc3c1CC1(C3)Cc3cc4c(c(C(=O)OC)c3C1)CCCC4)CCCC2 | > 200 | > 200 | –
29 | CCN(CC)CCN1CCN=c2c3cc(OC)ccc3n3cnc4ccc1c2c43 | > 2 | 0.0347 | –
30 | COc1ccc(-c2nc3ccc([N+](=O)[O-])cc3c(=O)[nH]2)cc1 | – | – | inactive
31 | COC(=O)C(=O)C(C(=O)OC)C(=O)C(=O)Nc1c(C)cccc1C (centres undefined) | > 204 | > 204 | –
32 | COc1ccccc1N=Nc1c(S(=O)(=O)O)cc2cc(NC(=O)Nc3ccc4c(O)c(N=Nc5ccc(S(=O)(=O)O)cc5C)c(S(=O)(=O)O)cc4c3)ccc2c1O | – | – | active
33 | CC1(C(=O)O)CCC[C@@]2(C)C1CC[C@@]1(C)c3cocc3CCC21 (some centres undefined) | – | – | inactive
34 | C=CCC1(OC(C)=O)C2OC(=O)C1(O)OCC2O (centres undefined) | > 200 | > 200 | –
35 | CC1=CC(=C(c2cc(C)c(O)c(C(=O)O)c2)c2cc(C)c(O)c(C(=O)O)c2)C=C(C(=O)O)C1=O | – | – | inactive
36 | C(=N\OCc1ccccc1)/c1ncccc1C1OCCO1 | > 331 | 309 | –
37 | CCOC(=O)c1ccc(CSc2ccccc2C(=O)O)c([N+](=O)[O-])c1 | > 14.5 | > 14.5 | –
38 | O=c1[nH]c(Nc2ccc(Cl)c(C(F)(F)F)c2)nc2nc[nH]c12 | > 200 | 89.1 | –
39 | Cc1[nH]c2c(C)c3c([nH]c4ccc(Cl)cc43)c(C)c2c(=O)c1C | > 17 | 9.77 | –
40 | CCCCCCCCCCCCCCCCOC1OC(COC(C)=O)C(OC(C)=O)C(OC(C)=O)C1O (centres undefined) | > 13.5 | > 13.5 | –
41 | O=[N+]([O-])c1cc(C(F)(F)F)cc([N+](=O)[O-])c1CCl | – | – | inactive
42 | CC(CCCOC(c1ccccc1)(c1ccccc1)c1ccccc1)OC(=O)Nc1cc([N+](=O)[O-])cc([N+](=O)[O-])c1 (centres undefined) | > 12.9 | > 12.9 | –
43 | COc1ccc(/C=C2\CCc3cc(OC)c(OC)cc3C2=O)cc1 | – | – | inactive
44 | C=C[C@@H]1c2ccccc2C=C[C@]12C=CC(=O)CC2 | > 57.5 | 21.9 | –

Row | Structure (SMILES) | EC50 [µM] | IC50 [µM] | outcome
45 | CSc1ncc2c(C#N)c3[nH]c4ccccc4n3c(=O)c2n1 | > 200 | 6.46 | –
46 | CCCCCCCCOP(=O)(/C=C/c1ccccc1)OCCCCCCCC | > 6.61 | > 6.61 | –
47 | C=C(C)C1CC2=C(O1)C(=O)c1ccccc1C2=O (centres undefined) | > 200 | 2 | –
48 | O=C(N/C(=C\c1ccccc1O)C1NC(Cc2c[nH]c3ccccc23)C(=O)O1)c1ccccc1 (centres undefined) | > 100 | 74.1 | –
49 | Cc1cc(Cl)c(O)c(-c2cc(-c3ccccc3O)c(C#N)c(N)n2)c1 | > 200 | 2.14 | –
50 | C=C1C(C)C2C(Cc3ccccc3)NC(=O)C23C(OC(C)=O)C=CC(C)(O)C(=O)C(C)C/C=C/C3C1O (centres undefined) | > 20 | 0.17 | –
51 | CN=c1ssc(=S)n1C(C)C | > 200 | 16.2 | –
52 | COc1ccc(C2(Br)C(=O)NN=C2C)cc1 (centres undefined) | > 200 | 10.7 | –
53 | NS(=O)(=O)c1ccc(NC(=O)c2cccc3c(Nc4ccc(S(N)(=O)=O)cc4)c4ccccc4nc23)cc1 | > 34.7 | 26.3 | –
54 | CSc1nc(SC)c(Nc2cccc(C)c2)c(SC)n1 | > 200 | 3.47 | –
55 | CC(=O)c1cccc(NC(=O)C(=O)C(C(=O)c2ccccc2F)C2OC(=O)c3ccccc32)c1 (centres undefined) | > 389 | 15.8 | –
56 | O=C1C(=O)C(CN2CCOCC2)=C(N2CCOCC2)C(N2CCOCC2)=C1CN1CCOCC1 | > 200 | 77.6 | –
57 | Cc1cc(S(=O)(=O)Nc2nc3cscc3c(=O)n2N)c(S)cc1Cl | 33.9 | 132 | –
58 | CC(=O)[C@H]1[C@H](O)C[C@@]2(C)[C@@H]3CCc4cc(O)c(OC5OC(CO)C(O)C(O)C5O)cc4C3(C)C(=O)C[C@]12C (some centres undefined) | > 200 | > 200 | –
59 | COc1ccc2c(c1)[n+]([O-])c(/C(C)=N/NC(=O)CC#N)c[n+]2[O-] | > 16.6 | > 16.6 | –
60 | NC(=O)NNC(=O)CCn1[nH]c(=O)c(Cl)c(Cl)c1=O | – | – | inactive
61 | COC1(C)C=NCC(C)(C)NC(=O)C(C)(OC)C=NCC(C)(C)NC1=O (centres undefined) | > 14.1 | > 14.1 | –
62 | CC1(C)CCc2cc3c(cc2O1)OCCC3=O | – | – | inactive
63 | C#CCOC(=O)C=[N+]=[N-] | > 200 | > 200 | –
64 | CC(C)=CCc1c(-c2ccc(OC3OC(CO)C(O)C(O)C3O)cc2O)oc2c3c(cc(O)c2c1=O)OC(C)(C)C=C3 (centres undefined) | > 11.5 | > 11.5 | –
65 | C=CCCCN(C(=O)c1ccccc1)c1ccc(C(=O)OC)o1 | > 200 | 50.1 | –
66 | C=Cc1c(-c2ccccc2)cnc2[nH]c3ccccc3c12 | > 13.8 | > 13.8 | –

Row | Structure (SMILES) | EC50 [µM] | IC50 [µM] | outcome
67 | CCCN=C(NNC(N)=O)C(C)=O | > 1350 | 1100 | –
68 | COc1ccc2c(c1)OCC1Cc3cc4c(cc3OC21)OCO4 (centres undefined) | – | – | inactive
69 | CC(=O)Oc1c(Br)ccc2cc(C(Br)Br)c(C(=O)c3ccccc3)nc12 | > 5.01 | > 5.01 | –
70 | O=C(O)c1ccccc1Sc1ccc(C=C2NC(=S)N(c3ccccc3)C2=O)s1 | > 200 | 97.7 | –
71 | CCOC(=O)c1c(C)c(C(C)=O)c2ccccn12 | > 145 | 95.5 | –
72 | C=C1CN(S(=O)(=O)c2ccc(C)cc2)CCCN(Cc2ccccc2)CCN(S(=O)(=O)c2ccc(C)cc2)C1 | > 200 | 155 | –
73 | COc1cccc2c1C(=O)C1(O)CCCCC21 (centres undefined) | 44.7 | > 200 | –
74 | N#CCCC1(CCC#N)CCCCCCCCC(CCC#N)(CCC#N)C(=O)C1=O | > 200 | > 200 | –
75 | CC(=O)OCC1OC(n2c(C)c(C(C)=O)c(-c3cccc4ccccc34)c(C#N)c2=S)C(OC(C)=O)C(OC(C)=O)C1OC(C)=O (centres undefined) | > 200 | 112 | –
76 | O=C(/C=C/c1ccccc1)Oc1cccc2cccnc12 | > 200 | 3.63 | –
77 | Cc1ccc2c(c1-c1c(C)ccc3c1C(=O)c1ccccc1C3=O)C(=O)c1ccccc1C2=O | > 200 | 7.76 | –
78 | Cc1c2ccccc2nc(CSCC(O)CO)[n+]1[O-] (centres undefined) | > 200 | > 200 | –
79 | COc1ccc(CC(=O)C2C(=O)N(C)c3ccccc32)cc1OC (centres undefined) | > 200 | 44.7 | –
80 | CCOC(=O)/C(=C/c1ccc2ccccc2c1)P(=O)(OCC)OCC | > 100 | 24 | –
81 | CC(=O)NNC(=S)/N=C/C(C(=O)Nc1ccc(Cl)cc1)=C(\C)O | – | – | inactive
82 | Cc1cc2c(c(C(=O)NCC(=O)O)c1)Oc1c(cc(C)cc1C(=O)NCC(=O)O)S2 | > 200 | > 200 | –
83 | CC(C)NC1CCCCC2c3ccccc3C12O (centres undefined) | 145 | > 200 | –
84 | COC1(OC)C2(Cl)CC(OC(C)=O)C1(Cl)C(Cl)=C2Cl (centres undefined) | > 200 | > 100 | –
85 | O=C(O)CCC(NC(=O)c1ccc(CNc2nc3cc(C(F)(F)F)ccc3nc2C(=O)O)cc1)C(=O)O (centres undefined) | > 200 | > 200 | –
86 | O=C1COc2ccc([N+](=O)[O-])cc2C(=O)C1 | > 200 | > 200 | –
